Measurements reported in patent publication US4975434A, “Antiviral and anticancer cyclopentenyl cytosine” (priority 1989, dated 1990).
≈ marks a conversion by molar mass, not a printed value. Entries after “also recorded” stand apart in the source; their conditions may differ.

How the values were obtained:
[1] = test system: Yellow Fever virus, strain Asibi; experiment: microbe, parasite or virus in culture; assay type: cell-based, Yellow Fever virus; host Vero cells
CTP synthesase = experiment: Inhibition of CTP synthesis (CTP synthesase); assay type: biochemical; details: result in words
[2] = test system: Huf (human diploid foreskin cells); experiment: Toxicity to Huf host cells (gross cell morphology) in the VZV assay; assay type: cell-based
[3] = test system: vaccinia virus (IHD strain); assay type: in vivo, mouse (CD-I)
[4] = test system: phosphorylation of uridine; experiment: Inhibition of uridine phosphorylation
LOX Melanoma = experiment: Human tumor xenograft in athymic mice, LOX melanoma (intraperitoneal)
c-myc mRNA = c-myc mRNA levels in HL-60 cells; assay type: cell-based, human
[5] = test system: P388/ara-C (Arabinosyl cytosine resistant P388 leukemia); experiment: In vivo antitumor test, ara-C resistant P388 leukemia in mice; details: for activity against ara-C resistant P388: result in words
Rhinovirus 1A = experiment: Antiviral activity against rhinovirus 1A; assay type: cell-based; details: result in words
[6] = test system: Herpes simplex type 2, strain MS; experiment: Cytopathogenic inhibition test, HSV-2; assay type: cell-based
[7] = test system: Janapese Encephalitis virus, strain Najayama; experiment: Antiviral test in vitro, Japanese encephalitis virus; assay type: cell-based, Japanese encephalitis virus; host Vero cells
tumors = experiment: Antitumor activity (general statement); details: general statement
[8] = test system: HL-60 DNA synthesis / RNA synthesis; experiment: Inhibition of nucleic acid (DNA, RNA) synthesis in HL-60 cells; assay type: cell-based, human
[9] = minimum toxic drug concentration / ID50, Vero cells
[10] = Table II Experiment 1, tumor IP, IP QD1-9, OD 1.5 mg/kg/injection
[11] = Table II Experiment 2, tumor IP, IP QD1-9, OD 1.5 mg/kg/injection

Nc1ccn([C@@H]2C=C(CO)[C@@H](O)[C@H]2O)c(=O)n1 [CPE-C]
VR (virus rating) ([1]; Vero cells, strain Asibi): 0.9
IC50 ([1]; Yellow fever virus, Vero, read-out: ID50): 5.05 µg/mL (≈ 21.1 µM)
TI (therapeutic index) [1, 9]: 0.1
inhibition of CTP synthesis (CTP synthesase): powerful inhibitors of CTP synthesis
Host cell toxicity (gross cell morphology) ([2]; 320 μg/ml): Slightly toxic
Host cell toxicity (gross cell morphology) ([2]; 100 and 32 μg/ml): Very slightly toxic
activity in vivo, mouse tail pox model ([3]; 1.5 mg/kg): good protection; also recorded: Excellent activity
Pox Count (mean value, 20 mice) ([3]; CPE-C 1.5 mg/kg, QD 1-7 subcutaneous, PBS control 45.8): 0.8
inhibition of phosphorylation of uridine [4]: inhibited competitively the phosphorylation of uridine
tumor cell kill (LOX Melanoma; 2.25 mg/kg, QD 1-9): two-log tumor cell kill
potency relative to 3DU (LOX Melanoma; LOX xenograft): about 100 times
% ILS (LOX Melanoma; Table III Experiment 1, tumor IP, IP QD1-9, OD 1.0 mg/kg/injection): 119%
% ILS (LOX Melanoma; Table III Experiment 2, tumor IP, IP QD1-9, OD 2.25 mg/kg/injection): 80%
% ILS (LOX Melanoma; Table IV, CPE-C 1.5 mg/kg, QD1-9): 58%
% ILS (LOX Melanoma; Table IV, CPE-C 2.25 mg/kg, QD1-9): 80%
difference in tumor burden between CPE-C and 3DU (LOX Melanoma; in vivo): five-log difference in tumor burden
increase in life span (LOX Melanoma; intraperitoneally implanted): about 100%
activity (LOX Melanoma; result in words): Good activity
inhibition of c-myc mRNA levels (c-myc mRNA): more pronounced than the reduction in total cellular RNA synthesis; also recorded: reduction of c-myc RNA levels
% ILS [5, 10]: 165%
LCK [5, 10]: > 6.5 log
Number of 30 day survivors out of six mice [5, 10]: 3
% ILS [5, 11]: 133%
LCK [5, 11]: 3.8 log
activity against ara-C resistant P388 [5]: collaterally sensitive
activity against ara-C resistant P388 ([5]; listed as cyclopentenyl cytosine): significant antitumor activity
antiviral activity (Rhinovirus 1A): Activity was not seen
IC50 ([6]; Human alphaherpesvirus 2, Vero cells, strain MS, inhibition of virus-induced cytopathogenic effects, read-out: ID50 (the source's name)): 2.7 µg/mL (≈ 11.3 µM)
VR (virus rating) ([6]; Vero cells, strain MS): 2.3
antiviral activity ([6]; result in words): Potent activity
IC50 ([7]; Japanese encephalitis virus, Vero, read-out: ID50): 0.1 µg/mL (≈ 0.418 µM)
VR (virus rating) ([7]; Vero cells, strain Najayama): 2.4
TI (therapeutic index) [7, 9]: 3.1
antiviral activity ([7]; result in words): Good activity; also recorded: greater potency and higher therapeutic index than Ribavarin
activity against ara-C resistant tumors and human tumors grown in mice (tumors): particularly potent and active agents
RNA synthesis ([8]; 10^-7 M): inhibited to a lesser extent
DNA synthesis, % of control levels ([8]; 24 hrs. after exposure to 10^-7 M): 10%
